Our source for the TGI values is PubChem BioAssay (NCI).

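The compound was tested at five concentrations on cells cultured in 96-well plates, with a 48-hour exposure period. TGI marks complete inhibition of growth.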

Test systems include HOP-18 NSCLC; SF-268 CNS; MALME-3M melanoma; SK-MEL-2 melanoma; UACC-62 melanoma; NCI-H23 lung; SNB-75 CNS; DMS 114 small cell lung; SF-295 CNS; EKVX NSCLC; SN12C renal; RXF 393 renal; NCI-H522 lung; DMS 273 small cell lung; SNB-78 CNS; NCI-H226 lung; CAKI-1 renal; M14 melanoma; M19-MEL melanoma; TK-10 renal.
Common to all, as to test: NCI anticancer screen, dose series, 48 h

In the case of `Cc1ccccc1-c1nc2c(C(=O)NCCN(C)C)cccc2[nH]1`, the TGI in the assay with HOP-18 NSCLC was 54.8 µM; with SF-268 CNS it was more than 100 µM; in the assay on MALME-3M melanoma, more than 62.2 µM; in the assay on SK-MEL-2 melanoma, more than 100 µM; with UACC-62 melanoma, more than 100 µM; in the assay on NCI-H23 lung, more than 100 µM. In addition, the TGI in the assay with SNB-75 CNS, in the assay on DMS 114 small cell lung, with SF-295 CNS, with EKVX NSCLC, with SN12C renal and in the assay on RXF 393 renal was more than 100 µM each time. For the same molecule, the TGI in the assay on NCI-H522 lung is more than 100 µM; in the assay with DMS 273 small cell lung it was more than 100 µM; in the assay on SNB-78 CNS, more than 100 µM; with NCI-H226 lung it was 48 µM; in the assay with CAKI-1 renal, more than 100 µM.
Regarding `Cc1cc(=O)[nH]c(NN2C(Cl)C(=O)C2c2ccc([N+](=O)[O-])cc2)n1` (stereo not drawn), the TGI in the assay with HOP-18 NSCLC was 23.9 µM; with M14 melanoma, 23 µM; with SF-268 CNS it was 41 µM; in the assay with SK-MEL-2 melanoma, 19.6 µM; in the assay with UACC-62 melanoma, 11.5 µM; in the assay with NCI-H23 lung, 26.1 µM. The TGI in the assay on SNB-75 CNS was found to be 9.11 µM; with M19-MEL melanoma, 17.3 µM; in the assay on DMS 114 small cell lung, 28.7 µM; in the assay with EKVX NSCLC, 78.8 µM; in the assay with SN12C renal it was 24.5 µM; in the assay with RXF 393 renal, 14.1 µM. Moreover, the TGI turned out to be 22.7 µM in the assay with DMS 273 small cell lung, 29.7 µM in the assay with TK-10 renal and 25 µM in the assay on SNB-78 CNS.
`COc1ccc(-c2oc3cc(O)cc(O)c3c(=O)c2OC)cc1`: the TGI is more than 100 µM in the assay on M14 melanoma; 78.2 µM in the assay on SF-268 CNS; more than 100 µM in the assay with MALME-3M melanoma; more than 100 µM with UACC-62 melanoma; more than 100 µM with SF-295 CNS; more than 100 µM with EKVX NSCLC. Besides, the values for the TGI in the assay with NCI-H522 lung, in the assay on TK-10 renal and with CAKI-1 renal were 9.7 µM, more than 100 µM and 60 µM, respectively.
As to `C=CCP(=O)(CC=C)C(Cl)Cl`, the TGI in the assay with M14 melanoma, with SK-MEL-2 melanoma, in the assay on NCI-H23 lung, in the assay on SNB-75 CNS, in the assay with SF-295 CNS and with SN12C renal was more than 100 µM each time. Besides, the TGI with NCI-H522 lung, in the assay with TK-10 renal, with NCI-H226 lung and with CAKI-1 renal was more than 100 µM each time.
With `COc1cccc(N[C@@H]2c3cc4c(cc3C(c3cc(OC)c(O)c(OC)c3)[C@H]3C(=O)OCC32)OCO4)c1` (stereo partly drawn), the TGI in the assay with HOP-18 NSCLC was determined as 21.7 µM; in the assay with SF-268 CNS, 12.8 µM; in the assay on MALME-3M melanoma, 20.7 µM; in the assay on SK-MEL-2 melanoma, 11.2 µM; with UACC-62 melanoma it was 2.83 µM; with NCI-H23 lung it was 9.96 µM. Also, the TGI was more than 59.7 µM in the assay with M19-MEL melanoma; 4.77 µM in the assay with DMS 114 small cell lung; 2.5 µM in the assay with SF-295 CNS; 14.9 µM in the assay on EKVX NSCLC; 7.12 µM in the assay on RXF 393 renal; 8.02 µM in the assay with NCI-H522 lung. The TGI is 2.44 µM in the assay on DMS 273 small cell lung, more than 100 µM in the assay with SNB-78 CNS, 2.05 µM in the assay with NCI-H226 lung and 2.12 µM in the assay with CAKI-1 renal.
Turning to `O=C(O)c1ccccc1N=Cc1ccc(N(CCCl)CCCl)cc1`, the TGI with HOP-18 NSCLC, in the assay with SF-268 CNS, with MALME-3M melanoma, in the assay with SK-MEL-2 melanoma, in the assay with UACC-62 melanoma and in the assay on NCI-H23 lung was more than 100 µM in each case. For the same molecule, the TGI in the assay with SNB-75 CNS is more than 100 µM; in the assay on M19-MEL melanoma it was more than 100 µM; in the assay with SF-295 CNS, more than 100 µM; in the assay with EKVX NSCLC it was more than 100 µM; in the assay with SN12C renal, more than 100 µM; in the assay with RXF 393 renal, more than 73.2 µM. Moreover, the TGI with NCI-H522 lung is more than 100 µM; in the assay with DMS 273 small cell lung, more than 100 µM; with SNB-78 CNS, more than 100 µM; in the assay on CAKI-1 renal it was 34.5 µM.
